Assay results reported in ChEMBL document CHEMBL1153574, “Novel topoisomerase I-targeting antitumor agents synthesized from the N,N,N-trimethylammonium derivative of ARC-111, 5H-2,3-dimethoxy-8,9-methylenedioxy-5-[(2-N,N,N-trimethylammonium)ethyl]dibenzo[c,h][1,6]naphthyridin-6-one iodide” (Eur J Med Chem, 2009).

Test system: not listed separately
Experiment: Cytotoxicity against multidrug resistant human KBV1 cells overexpressing MDR1 after 4 days by MTT assay
Format: functional, cell-based
Conditions: KB-V1, 96 h

Compound	IC50 [nM]
COc1cc2c(=O)n(CCNC(CO)(CO)CO)c3c4cc5c(cc4ncc3c2cc1OC)OCO5	1800
COc1cc2c(=O)n(CCNCCN(C)C)c3c4cc5c(cc4ncc3c2cc1OC)OCO5	3400
CCN(CC)CCNCCn1c(=O)c2cc(OC)c(OC)cc2c2cnc3cc4c(cc3c21)OCO4	1200
COc1cc2c(=O)n(CCn3ccnn3)c3c4cc5c(cc4ncc3c2cc1OC)OCO5	10000
COc1cc2c(=O)n(CCN(C)CCO)c3c4cc5c(cc4ncc3c2cc1OC)OCO5	60
COc1cc2c(=O)n(CCN(CCO)CCO)c3c4cc5c(cc4ncc3c2cc1OC)OCO5	350

Test system: P388
Experiment: Cytotoxicity against mouse P388 cells after 4 days by MTT assay
Format: functional, cell-based
Conditions: P388, 96 h

Compound	IC50 [nM]
COc1cc2c(=O)n(CCNC(CO)(CO)CO)c3c4cc5c(cc4ncc3c2cc1OC)OCO5	330
COc1cc2c(=O)n(CCNCCN(C)C)c3c4cc5c(cc4ncc3c2cc1OC)OCO5	75
CCN(CC)CCNCCn1c(=O)c2cc(OC)c(OC)cc2c2cnc3cc4c(cc3c21)OCO4	230
COc1cc2c(=O)n(CCn3ccnn3)c3c4cc5c(cc4ncc3c2cc1OC)OCO5	4400
COc1cc2c(=O)n(CCN(C)CCO)c3c4cc5c(cc4ncc3c2cc1OC)OCO5	12
COc1cc2c(=O)n(CCN(CCO)CCO)c3c4cc5c(cc4ncc3c2cc1OC)OCO5	30

Test system: not listed separately
Experiment: Cytotoxicity against human KB3-1 cells after 4 days after MTT assay
Format: functional, cell-based
Conditions: KB 3-1, 96 h

Compound	IC50 [nM]
COc1cc2c(=O)n(CCNC(CO)(CO)CO)c3c4cc5c(cc4ncc3c2cc1OC)OCO5	250
COc1cc2c(=O)n(CCNCCN(C)C)c3c4cc5c(cc4ncc3c2cc1OC)OCO5	60
CCN(CC)CCNCCn1c(=O)c2cc(OC)c(OC)cc2c2cnc3cc4c(cc3c21)OCO4	40
COc1cc2c(=O)n(CCn3ccnn3)c3c4cc5c(cc4ncc3c2cc1OC)OCO5	700
COc1cc2c(=O)n(CCN(C)CCO)c3c4cc5c(cc4ncc3c2cc1OC)OCO5	6
COc1cc2c(=O)n(CCN(CCO)CCO)c3c4cc5c(cc4ncc3c2cc1OC)OCO5	23

Molecular target: T1, DNA topoisomerase 1 (Homo sapiens) (UniProt P11387)
T1 sequence (whole entry): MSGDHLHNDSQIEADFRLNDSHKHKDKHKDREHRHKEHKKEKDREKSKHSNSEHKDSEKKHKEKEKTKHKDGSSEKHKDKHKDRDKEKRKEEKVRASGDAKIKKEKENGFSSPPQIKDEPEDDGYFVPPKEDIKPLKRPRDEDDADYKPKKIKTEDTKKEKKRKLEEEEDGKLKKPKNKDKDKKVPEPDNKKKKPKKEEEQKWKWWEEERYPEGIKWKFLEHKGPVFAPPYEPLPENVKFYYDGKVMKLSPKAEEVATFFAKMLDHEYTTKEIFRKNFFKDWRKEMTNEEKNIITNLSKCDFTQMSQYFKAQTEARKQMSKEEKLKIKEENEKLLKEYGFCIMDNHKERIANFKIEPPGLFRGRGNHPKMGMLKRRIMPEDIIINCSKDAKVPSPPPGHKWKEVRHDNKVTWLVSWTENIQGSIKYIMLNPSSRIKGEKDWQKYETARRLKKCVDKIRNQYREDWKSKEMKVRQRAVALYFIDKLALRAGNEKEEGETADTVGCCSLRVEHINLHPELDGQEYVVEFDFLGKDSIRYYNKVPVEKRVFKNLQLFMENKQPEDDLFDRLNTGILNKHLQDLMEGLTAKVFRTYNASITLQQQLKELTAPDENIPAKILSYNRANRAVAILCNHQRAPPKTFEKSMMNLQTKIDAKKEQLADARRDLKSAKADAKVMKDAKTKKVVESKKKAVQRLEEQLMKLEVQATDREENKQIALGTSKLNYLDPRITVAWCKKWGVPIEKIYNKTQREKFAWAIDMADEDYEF
Experiment: Effect on human topoisomerase 1 expressed in Sf9 insect cells assessed as effective concentration required for 10% cleavage of plasmid DNA relative to topotecan
Conditions: not given

Compound	Activity
CC[C@@]1(O)C(=O)OCc2c1cc1n(c2=O)Cc2cc3ccccc3nc2-1	0.2
COc1cc2c(=O)n(CCNC(CO)(CO)CO)c3c4cc5c(cc4ncc3c2cc1OC)OCO5	2
COc1cc2c(=O)n(CCNCCN(C)C)c3c4cc5c(cc4ncc3c2cc1OC)OCO5	6.4
CCN(CC)CCNCCn1c(=O)c2cc(OC)c(OC)cc2c2cnc3cc4c(cc3c21)OCO4	5.2
COc1cc2c(=O)n(CCn3ccnn3)c3c4cc5c(cc4ncc3c2cc1OC)OCO5	> 10
COc1cc2c(=O)n(CCN(C)CCO)c3c4cc5c(cc4ncc3c2cc1OC)OCO5	0.04
COc1cc2c(=O)n(CCN(CCO)CCO)c3c4cc5c(cc4ncc3c2cc1OC)OCO5	0.48

Test system: not listed separately
Experiment: Cytotoxicity against human CPT-K5 cells after 4 days by MTT assay
Format: functional, cell-based
Conditions: CPT-K5, 96 h

Compound	IC50 [nM]
COc1cc2c(=O)n(CCNC(CO)(CO)CO)c3c4cc5c(cc4ncc3c2cc1OC)OCO5	7000
COc1cc2c(=O)n(CCNCCN(C)C)c3c4cc5c(cc4ncc3c2cc1OC)OCO5	2600
CCN(CC)CCNCCn1c(=O)c2cc(OC)c(OC)cc2c2cnc3cc4c(cc3c21)OCO4	9000
COc1cc2c(=O)n(CCn3ccnn3)c3c4cc5c(cc4ncc3c2cc1OC)OCO5	> 10000
COc1cc2c(=O)n(CCN(C)CCO)c3c4cc5c(cc4ncc3c2cc1OC)OCO5	580
COc1cc2c(=O)n(CCN(CCO)CCO)c3c4cc5c(cc4ncc3c2cc1OC)OCO5	320

Test system: not listed separately
Experiment: Cytotoxicity against human RPMI8402 cells after 4 days by MTT assay
Format: functional, cell-based
Conditions: RPMI 8402, 96 h

Compound	IC50 [nM]
COc1cc2c(=O)n(CCNC(CO)(CO)CO)c3c4cc5c(cc4ncc3c2cc1OC)OCO5	330
COc1cc2c(=O)n(CCNCCN(C)C)c3c4cc5c(cc4ncc3c2cc1OC)OCO5	140
CCN(CC)CCNCCn1c(=O)c2cc(OC)c(OC)cc2c2cnc3cc4c(cc3c21)OCO4	150
COc1cc2c(=O)n(CCn3ccnn3)c3c4cc5c(cc4ncc3c2cc1OC)OCO5	3500
COc1cc2c(=O)n(CCN(C)CCO)c3c4cc5c(cc4ncc3c2cc1OC)OCO5	15
COc1cc2c(=O)n(CCN(CCO)CCO)c3c4cc5c(cc4ncc3c2cc1OC)OCO5	40

Test system: not listed separately
Experiment: Cytotoxicity against mouse P388/CPT45 cells after 4 days by MTT assay
Format: functional, cell-based
Conditions: P388CPT45, 96 h

Compound	IC50 [nM]
COc1cc2c(=O)n(CCNC(CO)(CO)CO)c3c4cc5c(cc4ncc3c2cc1OC)OCO5	3500
COc1cc2c(=O)n(CCNCCN(C)C)c3c4cc5c(cc4ncc3c2cc1OC)OCO5	340
CCN(CC)CCNCCn1c(=O)c2cc(OC)c(OC)cc2c2cnc3cc4c(cc3c21)OCO4	350
COc1cc2c(=O)n(CCn3ccnn3)c3c4cc5c(cc4ncc3c2cc1OC)OCO5	> 10000
COc1cc2c(=O)n(CCN(C)CCO)c3c4cc5c(cc4ncc3c2cc1OC)OCO5	330
COc1cc2c(=O)n(CCN(CCO)CCO)c3c4cc5c(cc4ncc3c2cc1OC)OCO5	250

Test system: not listed separately
Experiment: Cytotoxicity against multidrug resistant human KBH5.0 cells overexpressing BCRP after 4 days by MTT assay
Format: functional, cell-based
Conditions: KBH5.0 cell, 96 h

Compound	IC50 [nM]
COc1cc2c(=O)n(CCNC(CO)(CO)CO)c3c4cc5c(cc4ncc3c2cc1OC)OCO5	1800
COc1cc2c(=O)n(CCNCCN(C)C)c3c4cc5c(cc4ncc3c2cc1OC)OCO5	750
CCN(CC)CCNCCn1c(=O)c2cc(OC)c(OC)cc2c2cnc3cc4c(cc3c21)OCO4	300
COc1cc2c(=O)n(CCn3ccnn3)c3c4cc5c(cc4ncc3c2cc1OC)OCO5	6000
COc1cc2c(=O)n(CCN(C)CCO)c3c4cc5c(cc4ncc3c2cc1OC)OCO5	50
COc1cc2c(=O)n(CCN(CCO)CCO)c3c4cc5c(cc4ncc3c2cc1OC)OCO5	280
